Columns and labels:
Assay type in all cases: cell-based
[1] = tested on: mast cells purified from 300g male Sprague/Dawley rats; assay: Histamine secretion from purified rat mast cells, 15 min preincubation, washed, C48/80 stimulation; settings: for Mast Cell Secretion, % of Total: 15 min preincubation, washed, then C48/80 0.1 μg/ml 10 min
Method: Here, we investigated the effect of the polysaccharide chondroitin sulfate and of the flavonoid quercetin on histamine secretion from mast cells purified from 300g male Sprague/Dawley rats. Mast cells were preincubated with the test compound for 15 min at 37° C. and washed twice prior to stimulation with 0.1 μg/ml of the mast cell secretagogue compound 48/80 (C48/80) for 10 min. […] A combination of these naturally occurring products available OTC could be useful for the prevention of stress-induced gastrointestinal syndromes, such as irritable bowel syndrome or inflammatory bowel disease.

[2] = tested on: mast cells purified from peritoneal cavities of male Sprague/Dawley rats; assay: Histamine secretion from purified rat peritoneal mast cells after saccharide preincubation and wash, stimulated with C48/80 or SP; settings: preincubated with 10^−5 M saccharide 60 min 37° C., washed twice; for Mast Cell Secretion (% inhibition), C48/80: stimulated with 10^−5 M C48/80, n = 4; for Mast Cell Secretion (% inhibition), SP: stimulated with 10^−5 M Substance P, n = 3
Method: We studied the effect of chondroitin sulfate on histamine secretion from mast cells purified from peritoneal cavities of male Sprague/Dawley rats (300g, Charles River) over 25% Metrizamide (Accurate Scientific). Mast cells were preincubated with 10^−5 M saccharide for 60 min at 37° C. followed by two washes and resuspension in saccharide-free medium prior to stimulation with 10^−5 M of the mast cell secretagogue, compound 48/80 (C48/80) or the neuropeptide Substance P (SP). As the cells were washed free of saccharide, any inhibitory effect was not due to any interference with binding of C48/80 or SP to the cell surface. Consequently, this effect is distinct from reports showing that certain monosaccharide-containing lectins inhibit C48/80-induced mast cell secretion (Matsuda, K., et al., Jpn. J. Pharmacol. 64:1, 1994).

[3] = tested on: human leukemic mast cells; assay: Proliferation of cultured human leukemic mast cells; settings: for Inhibition (%) of human leukemic mast cell proliferation: n = 5
Description: Cell viability was about 90% or better.

Molecule: O=c1c(O)c(-c2ccc(O)c(O)c2)oc2cc(O)cc(O)c12 [Quercetin, quercetin]
- Mast Cell Secretion, % of Total ([1]; test compound 10^−6M): 30.5 ± 0.5%

Molecule: CC(=O)N[C@H]1C(O)O[C@H](CO)[C@@H](O)[C@@H]1O (stereo partly drawn) [N-acetyl-glucosamine]
- Mast Cell Secretion (% inhibition), C48/80 [2]: 37.4 ± 10.5%
- Mast Cell Secretion (% inhibition), SP [2]: 30.8 ± 6.5%

Molecule: chondroitin sulfate
- Inhibition (%) of human leukemic mast cell proliferation ([3]; Day 3, 10^−4M): 57.8 ± 13.3%
- Inhibition (%) of human leukemic mast cell proliferation ([3]; Day 3, 10^−5M): 44.3 ± 12.7%
- Inhibition (%) of human leukemic mast cell proliferation ([3]; Day 3, 10^−6M): 27.2 ± 12.1%
- Inhibition (%) of human leukemic mast cell proliferation ([3]; Day 3, 10^−7M): 12.6 ± 9.6%
- Inhibition (%) of human leukemic mast cell proliferation ([3]; Day 4, 10^−4M): 53.1 ± 8.9%
- Inhibition (%) of human leukemic mast cell proliferation ([3]; Day 4, 10^−5M): 38.9 ± 9.1%
- Inhibition (%) of human leukemic mast cell proliferation ([3]; Day 4, 10^−6M): 25.3 ± 9.6%
- Inhibition (%) of human leukemic mast cell proliferation ([3]; Day 4, 10^−7M): 14.9 ± 6.9%
- Inhibition (%) of human leukemic mast cell proliferation ([3]; Day 5, 10^−4M): 52.4 ± 13.9%
- Inhibition (%) of human leukemic mast cell proliferation ([3]; Day 5, 10^−5M): 31.2 ± 15.8%
- Inhibition (%) of human leukemic mast cell proliferation ([3]; Day 5, 10^−6M): 20.7 ± 15.2%
- Inhibition (%) of human leukemic mast cell proliferation ([3]; Day 5, 10^−7M): 14.7 ± 6.8%
- Cell viability ([3]; human leukemic mast cells cultured in the presence of chondroitin sulfate): ≥ 90%
- Mast Cell Secretion (% inhibition), C48/80 [2]: 75.4 ± 3.6%
- Mast Cell Secretion (% inhibition), SP [2]: 38.1 ± 12.2%
- maximal inhibition of mast cell activation ([1]; 10^−4 M, C48/80 stimulation): 83%
- Mast Cell Secretion, % of Total ([1]; test compound 10^−4M): 5.3 ± 1.3%
- Mast Cell Secretion, % of Total ([1]; test compound 10^−5M): 15.3 ± 2.7%
- Mast Cell Secretion, % of Total ([1]; test compound 10^−6M): 31.0 ± 2.9%

Molecule: N[C@H]1C(O)O[C@H](CO)[C@@H](O)[C@@H]1O.O=S(=O)(O)O (stereo partly drawn) [D-Glucosamine sulfate]
- Mast Cell Secretion (% inhibition), C48/80 [2]: 33.7 ± 1.5%
- Mast Cell Secretion (% inhibition), SP [2]: 27.5 ± 18.1%
